Results published in ChEMBL document CHEMBL1136375, “Design and synthesis of spiro-cyclopentenyl and spiro-[1,3]-dithiolanyl substituted pyrrolidine-5,5-trans-lactams as inhibitors of hepatitis C virus NS3/4A protease” (Bioorg Med Chem Lett, 2003).

Columns and labels:
Hepatitis C virus [1] = experiment: Inhibitory activity against hepatitis C virus protease enzyme(HCV) NS3/4A; assay type: functional, Hepacivirus hominis
Hepatitis C virus [2] = experiment: Inhibitory activity against hepatitis C virus protease enzyme(HCV) by using ELISA replicon assay; assay type: functional, organism-based, Hepacivirus hominis
[3] = In vitro stability behavior at 4 hr; assay type: physicochemical; conditions: read-out: Turnover

| SMILES | k obs / 1 (Hepatitis C virus [1]) [M⁻¹ s⁻¹] | IC50 (Hepatitis C virus [2]) [µM] | degraded at 4 h [3] [%] |
| --- | --- | --- | --- |
| CCN(CC)C(=O)N1C(=O)C2(CCC2)[C@@H]2[C@@H]1CCN2C(=O)[C@@H](NC(=O)OC(C)(C)C)C(C)C | 3.3 |  |  |
| CC(C)C(NC(=O)OC(C)(C)C)C(=O)N1CC[C@H]2[C@H]1C1(CC=CC1)C(=O)N2C(=O)C1CC1 (relative stereo) | 19 |  |  |
| CSC(=O)N1C(=O)C2(CCC2)[C@@H]2[C@@H]1CCN2C(=O)[C@@H](NC(=O)OC(C)(C)C)C(C)C | 154 | 7.9 |  |
| CC(C)C(=O)N1C(=O)C2(CCC2)[C@@H]2[C@@H]1CCN2C(=O)[C@@H](NC(=O)OC(C)(C)C)C(C)C (relative stereo) | 166 | 3.1 | 5 |
| CC(C)C(NC(=O)OC(C)(C)C)C(=O)N1CC[C@H]2[C@H]1C1(SCCS1)C(=O)N2C(=O)C1CC1 (relative stereo) | 621 | > 100 | > 50 |
| CC(C)[C@H](NC(=O)OC(C)(C)C)C(=O)N1CC[C@H]2[C@H]1C1(CCC1)C(=O)N2C(=O)C1CC1 | 400 | 4 | 27 |
| CC(C)C(=O)N1C(=O)C2(SCCS2)[C@@H]2[C@@H]1CCN2C(=O)C(NC(=O)OC(C)(C)C)C(C)C (some centres not stated) | 362 | 17 | > 50 |
| C=C(C)C(=O)N1C(=O)C2(CCC2)[C@@H]2[C@@H]1CCN2C(=O)[C@@H](NC(=O)OC(C)(C)C)C(C)C | 24 |  |  |
